The compounds below were run against T1, human SLC6A19 and TMEM27 (Homo sapiens, UniProt Q695T7) (assay: Radiolabelled (3H) leucine uptake in CHO cells with doxycycline-inducible expression of human SLC6A19 and TMEM27 (Example B-1)). Settings: CHO cells with doxycycline-inducible expression of human SLC6A19 and TMEM27, read-out: SLC6A19_Radioligand Uptake Assay IC50.
T1 construct: expressed in transfected cells
T1 sequence (Q695T7 1-634): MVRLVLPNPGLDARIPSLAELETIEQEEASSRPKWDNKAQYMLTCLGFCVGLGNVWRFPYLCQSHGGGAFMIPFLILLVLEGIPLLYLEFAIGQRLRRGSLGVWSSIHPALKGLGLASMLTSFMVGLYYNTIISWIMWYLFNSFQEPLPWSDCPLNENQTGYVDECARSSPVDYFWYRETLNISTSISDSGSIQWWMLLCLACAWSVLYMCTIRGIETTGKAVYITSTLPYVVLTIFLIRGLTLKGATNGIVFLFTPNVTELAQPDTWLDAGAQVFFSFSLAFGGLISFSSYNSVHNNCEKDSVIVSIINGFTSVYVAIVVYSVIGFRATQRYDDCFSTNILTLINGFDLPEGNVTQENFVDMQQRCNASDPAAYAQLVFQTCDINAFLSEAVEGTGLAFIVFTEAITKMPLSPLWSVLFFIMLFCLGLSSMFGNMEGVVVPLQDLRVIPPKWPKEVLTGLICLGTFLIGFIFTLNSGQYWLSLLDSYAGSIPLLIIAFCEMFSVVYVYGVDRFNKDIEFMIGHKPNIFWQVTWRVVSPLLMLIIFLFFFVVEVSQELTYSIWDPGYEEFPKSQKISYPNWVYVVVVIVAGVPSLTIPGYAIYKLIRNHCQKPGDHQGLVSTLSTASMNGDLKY
T1 sequence (Q9HBJ8 15-222 partner): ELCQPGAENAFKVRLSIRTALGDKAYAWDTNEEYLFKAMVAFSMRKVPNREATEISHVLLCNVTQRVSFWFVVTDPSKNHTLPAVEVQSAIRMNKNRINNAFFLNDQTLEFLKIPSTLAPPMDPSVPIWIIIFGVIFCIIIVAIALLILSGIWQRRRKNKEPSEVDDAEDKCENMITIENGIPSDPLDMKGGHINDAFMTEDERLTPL
Type: cell-based
Description: The flasks were then incubated (humidified, 37° C. with 5% CO2) for 2 minutes. After incubation, 10 mL of pre-warmed cell culture media was added to each flask. The cell suspension was collected and centrifuged for 5 minutes at 200×g. The supernatant was aspirated and the pellet was resuspended in 5 mL pre-warmed cell culture media. The resuspended cells were counted using the Countess Cell Counting Chamber (Invitrogen) and the cell concentration of the suspension was readjusted to 1 million live cells/mL using pre-warmed cell culture media. […] Assay plates were then incubated (humidified, 37° C. with 5% CO2) for 18 hours. After incubation, the media was aspirated and the wells were washed 4 times with pre-warmed HBSS (Sigma-Aldrich, H8264-1L) using an Apricot S-Pipette S2 (Apricot Designs), such that 5 uL/well HBSS was remaining at the end of each wash. […] At this step, the final in-well DMSO concentration in the assay plate is 0.5%. All compounds were plated in a duplicate 8-point dilution series that consisted of 3-fold dilutions. The plates were incubated with compound (humidified, 37° C. with 5% CO2) for 1 hour. […] The plates were then incubated (humidified, 37° C. with 5% CO2) on a plate shaker at 200 rpm for 2 hours. After incubation, the plates were removed from the shaker and kept at room temperature for 15 minutes. Liquid scintillation analysis was performed using the MicroBeta2 Microplate Counter (Perkin Elmer). Activity (%) was derived by normalizing the average of positive control compound treated wells to 0% and the average of DMSO (negative control) wells to 100%. Collaborative Drug Discovery software was used for graphing data.

| SMILES | IC50 |
| --- | --- |
| N#CCC(=O)NCc1cc2cc(Cl)c(OCc3cscn3)cc2[nH]1 [Compound 437, N-((5-chloro-6-(thiazol-4-ylmethoxy)-1H-indol-2-yl)methyl)-2-cyanoacetamide] | 382 nM |
| CC1(C(=O)NCc2cc3ccc(OCc4ccc5ccoc5c4)cc3[nH]2)CC1 [Compound 192, N-((6-(benzofuran-6-ylmethoxy)-1H-indol-2-yl)methyl)-1-methylcyclopropane-1-carboxamide] | 2510 nM |
| C[C@H]1CCN1C(=O)NCc1cc2cc(Cl)c(OCc3ccon3)cc2[nH]1 [Compound 362, (S)-N-((5-chloro-6-(isoxazol-3-ylmethoxy)-1H-indol-2-yl)methyl)-2-methylazetidine-1-carboxamide] | 983 nM |
| CO[C@H](C)C(=O)NCc1cc2cc(Cl)c(OCc3cc(C)no3)cc2[nH]1 [Compound 314, (R)-N-((5-chloro-6-((3-methylisoxazol-5-yl)methoxy)-1H-indol-2-yl)methyl)-2-methoxypropanamide] | 375 nM |
| Cc1cc(COc2cc3[nH]c(CNC(=O)[C@@H]4CCC[C@H]4O)cc3cc2Cl)on1 (racemic) [Compound 534, (1R,2R)-N-((5-chloro-6-((3-methylisoxazol-5-yl)methoxy)-1H-indol-2-yl)methyl)-2-hydroxycyclopentane-1-carboxamide and (1S,2S)-N-((5-chloro-6-((3-methylisoxazol-5-yl)methoxy)-1H-indol-2-yl)methyl)-2-hydroxycyclopentane-1-carboxamide] | 3040 nM |
| CNCC(=O)NCc1cc2cc(Cl)c(OCc3cscn3)cc2[nH]1 [Compound 614, N-((5-chloro-6-(thiazol-4-ylmethoxy)-1H-indol-2-yl)methyl)-2-(methylamino)acetamide] | 3260 nM |
| CC1(C(=O)NCc2cc3cc(Cl)c(OCCC4CCCO4)cc3[nH]2)CC1 (racemic) [Compound 397, (S)-N-((5-chloro-6-(2-(tetrahydrofuran-2-yl)ethoxy)-1H-indol-2-yl)methyl)-1-methylcyclopropane-1-carboxamide and (R)-N-((5-chloro-6-(2-(tetrahydrofuran-2-yl)ethoxy)-1H-indol-2-yl)methyl)-1-methylcyclopropane-1-carboxamide] | 492 nM |
| Cc1cc(COc2cc3[nH]c(CNC(=O)[C@H]4CC[C@@H]4O)cc3cc2Cl)on1 (racemic) [Compound 248, (1R,2R)-N-((5-chloro-6-((3-methylisoxazol-5-yl)methoxy)-1H-indol-2-yl)methyl)-2-hydroxycyclobutane-1-carboxamide and (1S,2S)-N-((5-chloro-6-((3-methylisoxazol-5-yl)methoxy)-1H-indol-2-yl)methyl)-2-hydroxycyclobutane-1-carboxamide] | 627 nM |
| COC(C)C(=O)NCc1cc2cc(Cl)c(OCc3cscn3)cc2[nH]1 (stereo not drawn) [Compound 271, N-((5-chloro-6-(thiazol-4-ylmethoxy)-1H-indol-2-yl)methyl)-2-methoxypropanamide] | 515 nM |
| Cc1cc(COc2cc3[nH]c(CNC(=O)[C@@H]4CCC[C@@H]4O)cc3cc2Cl)on1 (racemic) [Compound 573, (1R,2S)-N-((5-chloro-6-((3-methylisoxazol-5-yl)methoxy)-1H-indol-2-yl)methyl)-2-hydroxycyclopentane-1-carboxamide and (1S,2R)-N-((5-chloro-6-((3-methylisoxazol-5-yl)methoxy)-1H-indol-2-yl)methyl)-2-hydroxycyclopentane-1-carboxamide] | 1390 nM |
| Cc1cnc(COc2cc3[nH]c(CNC(=O)N4CCCC4)cc3cc2Cl)o1 [Compound 120, N-((5-chloro-6-((5-methyloxazol-2-yl)methoxy)-1H-indol-2-yl)methyl)pyrrolidine-1-carboxamide] | 375 nM |
| CC(=O)NCc1cc2cc(Cl)c(OCCOCC(F)F)cc2[nH]1 [Compound 650, N-((5-chloro-6-(2-(2,2-difluoroethoxy)ethoxy)-1H-indol-2-yl)methyl)acetamide] | 1010 nM |
| Cc1cc(COc2cc3[nH]c(CNC(=O)C4(CO)CCCO4)cc3cc2Cl)on1 (stereo not drawn) [Compound 295, N-((5-chloro-6-((3-methylisoxazol-5-yl)methoxy)-1H-indol-2-yl)methyl)-2-(hydroxymethyl)tetrahydrofuran-2-carboxamide] | 1610 nM |
| CC(=O)C(=O)NCc1cc2cc(Cl)c(OCc3cc(C)no3)cc2[nH]1 [Compound 582, N-((5-chloro-6-((3-methylisoxazol-5-yl)methoxy)-1H-indol-2-yl)methyl)-2-oxopropanamide] | 455 nM |

Now those with a lower IC50, led by results:

| IC50 | SMILES |
| --- | --- |
| 341 nM | CC1(C(=O)NCc2cc3ccc(OCc4cscn4)c(F)c3[nH]2)CC1 [Compound 19, N-((7-fluoro-6-(thiazol-4-ylmethoxy)-1H-indol-2-yl)methyl)-1-methylcyclopropane-1-carboxamide] |
| 240 nM | O=C(NCc1cc2cc(Cl)c(CCc3ccon3)cc2[nH]1)N1CCC1 [Compound 595, N-((5-chloro-6-(2-(isoxazol-3-yl)ethyl)-1H-indol-2-yl)methyl)azetidine-1-carboxamide] |
| 237 nM | Cc1cc(CNc2cc3[nH]c(CNC(=O)C4(C)CC4)cc3cc2Cl)no1 [Compound 451, N-((5-chloro-6-(((5-methylisoxazol-3-yl)methyl)amino)-1H-indol-2-yl)methyl)-1-methylcyclopropane-1-carboxamide] |
| 230 nM | O=C(NCc1cc2cc(F)c(OCc3cocn3)cc2[nH]1)N1CCCC1 [Compound 115, N-((5-fluoro-6-(oxazol-4-ylmethoxy)-1H-indol-2-yl)methyl)pyrrolidine-1-carboxamide] |
| 182 nM | CCOC(=O)NCc1cc2cc(Cl)c(OCc3cscn3)cc2[nH]1 [Compound 620, ethyl ((5-chloro-6-(thiazol-4-ylmethoxy)-1H-indol-2-yl)methyl)carbamate] |
| 181 nM | CC1(C(=O)NCc2cc3cc(Cl)c(OCC4CC4)cc3[nH]2)CC1 [Compound 633, N-((5-chloro-6-(cyclopropylmethoxy)-1H-indol-2-yl)methyl)-1-methylcyclopropane-1-carboxamide] |
| 163 nM | O=C(NCc1cc2cc(Cl)c(CCc3cscn3)cc2[nH]1)N1CCC1 [Compound 599, N-((5-chloro-6-(2-(thiazol-4-yl)ethyl)-1H-indol-2-yl)methyl)azetidine-1-carboxamide] |
| 145 nM | O=C(NCc1cc2cc(F)c(CCc3cscn3)cc2[nH]1)N1CCC1 [Compound 600, N-((5-fluoro-6-(2-(thiazol-4-yl)ethyl)-1H-indol-2-yl)methyl)azetidine-1-carboxamide] |
| 114 nM | CC1(C(=O)NCc2cc3cc(Cl)c(OCCc4ccon4)cc3[nH]2)CC1 [Compound 103, N-((5-chloro-6-(2-(isoxazol-3-yl)ethoxy)-1H-indol-2-yl)methyl)-1-methylcyclopropane-1-carboxamide] |
| 95.1 nM | Cc1cc(COc2cc3[nH]c(CNC(=O)c4ccon4)cc3cc2Cl)on1 [Compound 450, N-((5-chloro-6-((3-methylisoxazol-5-yl)methoxy)-1H-indol-2-yl)methyl)isoxazole-3-carboxamide] |
| 88.9 nM | O=C(CC(F)F)NCc1cc2cc(F)c(OCc3cscn3)cc2[nH]1 [Compound 516, 3,3-difluoro-N-((5-fluoro-6-(thiazol-4-ylmethoxy)-1H-indol-2-yl)methyl)propanamide] |
| 77.4 nM | CC(F)C(=O)NCc1cc2cc(Cl)c(OCc3cscn3)cc2[nH]1 (single isomer, unassigned) [Compound 444, (R or S)-N-((5-chloro-6-(thiazol-4-ylmethoxy)-1H-indol-2-yl)methyl)-2-fluoropropanamide] |
| 66.6 nM | O=C(NCc1cc2cc(Cl)c(OCc3cscn3)cc2[nH]1)C1CCO1 (stereo not drawn) [Compound 269, N-((5-chloro-6-(thiazol-4-ylmethoxy)-1H-indol-2-yl)methyl)oxetane-2-carboxamide] |
